In ChEMBL document CHEMBL2016457, “Discovery of potent and orally bioavailable 17β-hydroxysteroid dehydrogenase type 3 inhibitors” (Bioorg Med Chem, 2012):
The source made the active and inactive calls. No rule for the calls is given here.

What was measured:
[1] = biological target: T1, 17-beta-hydroxysteroid dehydrogenase type 1 (Homo sapiens) (UniProt P14061); experiment: Inhibition of human recombinant 17-beta-HSD1 expressed in human HeLa cells using estrone as substrate preincubated for 30 mins prior substrate addition measured after 120 mins by spectrophotometry; assay type: cell-based
T1 sequence (whole entry): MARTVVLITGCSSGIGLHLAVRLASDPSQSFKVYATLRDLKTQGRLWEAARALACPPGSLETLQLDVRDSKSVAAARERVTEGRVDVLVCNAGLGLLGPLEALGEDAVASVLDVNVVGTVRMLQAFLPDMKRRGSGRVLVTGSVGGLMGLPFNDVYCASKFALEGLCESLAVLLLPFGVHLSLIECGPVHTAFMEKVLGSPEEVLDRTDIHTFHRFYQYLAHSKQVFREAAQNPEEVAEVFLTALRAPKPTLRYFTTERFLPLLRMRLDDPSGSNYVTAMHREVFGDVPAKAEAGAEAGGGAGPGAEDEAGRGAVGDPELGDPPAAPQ

[2] = biological target: T2, 17-beta-hydroxysteroid dehydrogenase type 2 (Homo sapiens) (UniProt P37059); experiment: Inhibition of human recombinant 17-beta-HSD2 expressed in human HeLa cells using estradiol as substrate preincubated for 30 mins prior substrate addition measured after 120 mins by spectrophotometry; assay type: cell-based
T2 sequence (whole entry): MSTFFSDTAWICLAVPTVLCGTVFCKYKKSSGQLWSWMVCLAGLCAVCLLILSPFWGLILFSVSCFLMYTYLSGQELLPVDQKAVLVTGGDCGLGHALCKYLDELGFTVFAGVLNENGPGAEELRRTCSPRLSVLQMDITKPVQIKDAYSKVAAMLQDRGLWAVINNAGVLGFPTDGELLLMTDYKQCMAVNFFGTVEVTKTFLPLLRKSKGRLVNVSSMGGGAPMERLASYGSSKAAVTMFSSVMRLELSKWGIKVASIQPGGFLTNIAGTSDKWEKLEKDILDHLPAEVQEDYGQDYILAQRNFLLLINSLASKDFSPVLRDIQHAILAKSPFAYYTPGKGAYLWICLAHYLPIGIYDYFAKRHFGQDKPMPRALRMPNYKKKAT

[3] = biological target: T3, Androgen receptor (Homo sapiens) (UniProt P10275); experiment: Agonist activity at human androgen receptor expressed in human HeLa cells assessed as DHT-induced response after 40 hrs by luciferase/beta-galactosidase-based reporter gene assay; assay type: functional, cell-based
T3 sequence (whole entry): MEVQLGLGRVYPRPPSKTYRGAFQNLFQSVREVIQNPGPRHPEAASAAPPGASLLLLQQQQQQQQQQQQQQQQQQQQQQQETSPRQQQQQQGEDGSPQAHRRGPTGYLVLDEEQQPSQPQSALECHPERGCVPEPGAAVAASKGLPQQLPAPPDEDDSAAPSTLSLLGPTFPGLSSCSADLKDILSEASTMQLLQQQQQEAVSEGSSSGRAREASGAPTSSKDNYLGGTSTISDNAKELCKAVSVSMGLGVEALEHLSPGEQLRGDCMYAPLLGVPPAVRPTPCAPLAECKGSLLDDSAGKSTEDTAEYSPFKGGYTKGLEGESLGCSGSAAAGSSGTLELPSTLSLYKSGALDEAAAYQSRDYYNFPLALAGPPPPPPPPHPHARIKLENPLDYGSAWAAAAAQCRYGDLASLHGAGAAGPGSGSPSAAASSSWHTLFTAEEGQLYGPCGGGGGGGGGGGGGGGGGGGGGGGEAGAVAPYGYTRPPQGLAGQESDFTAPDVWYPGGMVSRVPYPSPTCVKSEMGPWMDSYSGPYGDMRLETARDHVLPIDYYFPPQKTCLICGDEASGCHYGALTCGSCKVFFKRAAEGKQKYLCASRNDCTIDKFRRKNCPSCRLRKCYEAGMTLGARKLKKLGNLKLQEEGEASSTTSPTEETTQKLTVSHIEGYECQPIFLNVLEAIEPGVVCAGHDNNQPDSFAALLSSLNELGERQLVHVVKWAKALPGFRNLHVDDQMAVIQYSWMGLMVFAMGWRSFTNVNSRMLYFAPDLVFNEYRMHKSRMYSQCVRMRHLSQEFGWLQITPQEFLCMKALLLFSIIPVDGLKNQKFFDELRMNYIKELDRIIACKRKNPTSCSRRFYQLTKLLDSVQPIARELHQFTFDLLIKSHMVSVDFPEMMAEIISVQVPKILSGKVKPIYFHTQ

[4] = biological target: T4, Estrogen receptor (Homo sapiens) (UniProt P03372); experiment: Agonist activity at human Estrogen receptor ERalpha expressed in human HeLa cells assessed as DHT-induced response after 40 hrs by luciferase/beta-galactosidase-based reporter gene assay; assay type: functional, cell-based
T4 sequence (whole entry): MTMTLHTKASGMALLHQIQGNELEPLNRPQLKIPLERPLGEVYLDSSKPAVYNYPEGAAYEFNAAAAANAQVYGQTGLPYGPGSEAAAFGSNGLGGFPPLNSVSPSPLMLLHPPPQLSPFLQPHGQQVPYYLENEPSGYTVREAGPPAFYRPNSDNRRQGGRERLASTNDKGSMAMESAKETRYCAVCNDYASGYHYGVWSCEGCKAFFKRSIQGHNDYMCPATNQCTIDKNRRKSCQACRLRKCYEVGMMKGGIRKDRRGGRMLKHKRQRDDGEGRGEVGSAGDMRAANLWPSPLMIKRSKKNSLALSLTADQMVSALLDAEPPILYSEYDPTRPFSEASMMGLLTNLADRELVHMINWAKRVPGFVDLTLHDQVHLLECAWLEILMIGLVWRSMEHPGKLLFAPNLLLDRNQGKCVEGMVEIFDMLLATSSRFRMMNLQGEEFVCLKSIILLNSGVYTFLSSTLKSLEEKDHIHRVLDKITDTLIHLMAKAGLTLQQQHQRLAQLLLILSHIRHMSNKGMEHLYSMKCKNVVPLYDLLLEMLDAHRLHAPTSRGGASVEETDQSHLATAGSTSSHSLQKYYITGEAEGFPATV

[5] = biological target: T5, Glucocorticoid receptor (Homo sapiens) (UniProt P04150); experiment: Agonist activity at human Glucocorticoid receptor expressed in human HeLa cells assessed as DHT-induced response after 40 hrs by luciferase/beta-galactosidase-based reporter gene assay; assay type: functional, cell-based
T5 sequence (whole entry): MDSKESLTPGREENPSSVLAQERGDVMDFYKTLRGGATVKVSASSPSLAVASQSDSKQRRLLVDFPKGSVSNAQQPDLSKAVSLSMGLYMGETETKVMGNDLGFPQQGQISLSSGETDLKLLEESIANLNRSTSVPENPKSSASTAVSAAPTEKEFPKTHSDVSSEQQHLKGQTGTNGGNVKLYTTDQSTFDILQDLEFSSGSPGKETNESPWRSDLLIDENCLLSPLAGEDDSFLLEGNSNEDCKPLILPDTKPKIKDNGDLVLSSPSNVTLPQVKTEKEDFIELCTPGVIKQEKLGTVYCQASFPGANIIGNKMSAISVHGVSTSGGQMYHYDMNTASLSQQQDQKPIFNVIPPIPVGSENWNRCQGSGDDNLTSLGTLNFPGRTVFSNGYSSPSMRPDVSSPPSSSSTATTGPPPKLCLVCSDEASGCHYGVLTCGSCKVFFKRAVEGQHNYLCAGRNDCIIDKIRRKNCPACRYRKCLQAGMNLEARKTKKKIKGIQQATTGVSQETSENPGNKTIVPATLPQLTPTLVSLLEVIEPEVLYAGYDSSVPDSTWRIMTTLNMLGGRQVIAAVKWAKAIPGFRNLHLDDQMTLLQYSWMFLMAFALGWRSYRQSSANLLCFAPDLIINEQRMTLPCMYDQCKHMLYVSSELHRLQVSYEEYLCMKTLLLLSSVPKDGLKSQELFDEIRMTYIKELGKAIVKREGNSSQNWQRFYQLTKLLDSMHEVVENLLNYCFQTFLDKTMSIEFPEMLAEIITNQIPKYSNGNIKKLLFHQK

[6] = biological target: T3, Androgen receptor (Homo sapiens); experiment: Antagonist activity at human androgen receptor expressed in human HeLa cells assessed as inhibition of DHT-induced response after 40 hrs by luciferase/beta-galactosidase-based reporter gene assay; assay type: functional, cell-based
[7] = biological target: T4, Estrogen receptor (Homo sapiens); experiment: Antagonist activity at human ERalpha receptor expressed in human HeLa cells assessed as inhibition of DHT-induced response after 40 hrs by luciferase/beta-galactosidase-based reporter gene assay; assay type: functional, cell-based
[8] = biological target: T5, Glucocorticoid receptor (Homo sapiens); experiment: Antagonist activity at human GR receptor expressed in human HeLa cells assessed as inhibition of DHT-induced response after 40 hrs by luciferase/beta-galactosidase-based reporter gene assay; assay type: functional, cell-based
[9] = biological target: T6, 17-beta-hydroxysteroid dehydrogenase type 3 (Homo sapiens, UniProt P37058)
T6 sequence (P37058 whole entry): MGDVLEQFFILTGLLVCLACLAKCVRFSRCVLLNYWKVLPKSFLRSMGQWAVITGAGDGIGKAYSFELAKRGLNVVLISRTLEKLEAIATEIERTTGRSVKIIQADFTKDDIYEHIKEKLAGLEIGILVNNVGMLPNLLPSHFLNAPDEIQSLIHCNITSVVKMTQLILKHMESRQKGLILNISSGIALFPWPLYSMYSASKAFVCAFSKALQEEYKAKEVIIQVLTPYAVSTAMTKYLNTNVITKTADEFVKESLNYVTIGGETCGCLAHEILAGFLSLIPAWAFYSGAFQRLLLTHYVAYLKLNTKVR
Description: Inhibition of human recombinant 17-beta-HSD3 expressed in human HeLa cells using androstenedione as substrate preincubated for 30 mins prior substrate addition measured after 120 mins by spectrophotometry

SMILES | inhibition [1] | inhibition [2] | Activity [3] | Activity [4] | Activity [5] | Activity [6] | Activity [7] | Activity [8] | IC50 [9]
COc1ccc(N2C(=O)/C(=C/c3ccc(O)cn3)OC2=S)cc1 | inactive | inactive | inactive | inactive | inactive | inactive | inactive | inactive | 90 nM
O=C(Nc1ccc(N2C(=O)O/C(=C\c3ccc(O)c(Br)c3)C2=O)cc1)C1CCCCC1 | inactive | inactive | inactive | inactive | inactive | inactive | inactive | inactive | 21 nM
COc1ccccc1N1C(=O)/C(=C/c2ccc(O)c(Br)c2)OC1=S | inactive | inactive | inactive | inactive | inactive | inactive | inactive | inactive | 60 nM
COc1ccc(N2C(=O)/C(=C/c3ccc(O)c(Br)n3)OC2=S)cc1 | inactive | inactive | inactive | inactive | inactive | inactive | inactive | inactive | 42 nM
O=C1/C(=C/c2ccc(O)c(Br)c2)SC(=S)N1C1CCOCC1 | inactive | inactive | inactive | inactive | inactive | inactive | inactive | inactive | 75 nM
CN(C)C(=O)c1ccc(N2C(=O)O/C(=C\c3ccc(O)c(Br)c3)C2=O)cc1 | inactive | inactive | inactive | inactive | inactive | inactive | inactive | inactive | 65 nM
COc1ccc(N2C(=O)/C(=C/c3ccc(O)c(C)c3)OC2=S)cc1 | inactive | inactive | inactive | inactive | inactive | inactive | inactive | inactive | 20 nM

These reach a lower IC50 [9]. Values come first.

inhibition [1] | inhibition [2] | Activity [3] | Activity [4] | Activity [5] | Activity [6] | Activity [7] | Activity [8] | IC50 [9] | SMILES
inactive | inactive | inactive | inactive | inactive | inactive | inactive | inactive | 1 nM | COc1ccc(N2C(=O)/C(=C/c3cc(F)c(O)c(Cl)c3)OC2=S)cc1
inactive | inactive | inactive | inactive | inactive | inactive | inactive | inactive | 3 nM | O=C1/C(=C/c2ccc(O)c(Br)c2)OC(=S)N1c1ccc(C(F)(F)F)cc1
inactive | inactive | inactive | inactive | inactive | inactive | inactive | inactive | 4 nM | CN(C)c1ccc(N2C(=O)O/C(=C\c3ccc(O)c(Br)c3)C2=O)cn1
inactive | inactive | inactive | inactive | inactive | inactive | inactive | inactive | 3 nM | O=C1/C(=C/c2ccc(O)c(Br)c2)SC(=S)N1C1CCCCC1
